# Measurements taken from PMC3604760 (mBio, 2013).
# Columns and labels:
# [1] = target: MBP-cTlp1 (Azospirillum brasilense, UniProt Q64I05, R562A); experiment: equilibrium dialysis, HPLC quantification; format: binding
# [2] = target: MBP-cTlp1 (Azospirillum brasilense, UniProt Q64I05); experiment: equilibrium dialysis, HPLC quantification; format: binding
# Sequence of MBP-cTlp1 (Azospirillum brasilense, UniProt Q64I05) (Q64I05 344-660): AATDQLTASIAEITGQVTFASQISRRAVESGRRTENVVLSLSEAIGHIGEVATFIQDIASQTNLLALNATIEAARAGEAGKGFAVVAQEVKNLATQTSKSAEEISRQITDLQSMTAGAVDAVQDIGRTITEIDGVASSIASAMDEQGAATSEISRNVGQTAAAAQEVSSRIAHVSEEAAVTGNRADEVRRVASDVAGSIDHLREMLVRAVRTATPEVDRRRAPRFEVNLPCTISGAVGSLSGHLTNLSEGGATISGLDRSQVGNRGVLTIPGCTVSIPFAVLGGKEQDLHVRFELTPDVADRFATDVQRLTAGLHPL
# Sequence of MBP-cTlp1 (Azospirillum brasilense, UniProt Q64I05, R562A) (Q64I05 344-660 R562A): as the sequence (Q64I05 344-660) above, with R219A counted along it
smiles,measurement,setting,value
Nc1nc2c(ncn2[C@@H]2O[C@@H]3CO[P@](=O)(O)O[C@H]4[C@@H](O)[C@H](n5cnc6c(=O)[nH]c(N)nc65)O[C@@H]4CO[P@](=O)(O)O[C@H]3[C@H]2O)c(=O)[nH]1 [c-di-GMP],Kd,[1],21.8 ± 7.1 µM
same,Kd,[2],6.9 ± 1.2 µM
